Measurements reported in ChEMBL document CHEMBL4359901, “Cyclic enaminone as new chemotype for selective cyclooxygenase-2 inhibitory, anti-inflammatory, and analgesic activities” (Eur J Med Chem, 2019).

Tested on: Rattus norvegicus
Assay: Antiinflammatory activity in Sprague-Dawley rat model of carrageenan-induced thermal hyperalgesia assessed as paw withdrawal latency time at 50 mg/kg, po administered 1 hr prior to carrageenan challenge and measured after 1 hr by planter test (reference value: 8.88 +/- 0.52 sec)
Type: functional

CC(=O)N(C1=CC(=O)CCC1)c1ccc(Cl)cc1
Time: 12.25 s
